How the values were obtained:
Format in all cases: cell-based
[1] = test system: T47D (PI3Kα H1047R mutant) cells; test: Inhibition of pAKT formation, alphaLISA SureFire Ultra AKT 1/2/3 (pS473), T47D cells; conditions: Homo sapiens, T47D
Procedure, shortened: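 T47D cells (12,000/well) in HBSS were dosed with compound at 10 concentrations (10.4 μM top, 1:4 dilutions) for about 1 h or 24 h at 37 °C, then lysed. pS473 AKT was read by alphaLISA. Signals were normalized to alpelisib and DMSO controls, and IC50 came from a four-parameter fit.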

[2] = test system: MKN1 (PI3Kα E545K mutant) cells; test: Inhibition of pAKT formation, alphaLISA SureFire Ultra AKT 1/2/3 (pS473), MKN1 cells; conditions: Homo sapiens
Procedure, shortened: (§1)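 Cells seeded in HBSS (SKBR3 12,000/well, MKN1 24,000/well) and dosed immediately, 10-point 1:4 series from […], for about 1 h or 24 h at 37 °C. pAKT S473 by alphaLISA after lysis; signal normalised to alpelisib and DMSO controls, IC50 by four-parameter fit.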

[3] = test system: SKBR3 (PI3Kα wild type) cells; test: Inhibition of pAKT formation, alphaLISA SureFire Ultra AKT 1/2/3 (pS473), SKBR3 cells; conditions: Homo sapiens, SK-BR-3; Inhibition of pAKT in SKBR3 (PI3Kα wild type) cells; read-out: SKBR3 (WT) pAKT IC50 (nM) (H1047R mutant) IC50
Procedure, shortened: as §1

[4] = test system: T47D (PI3Kα H1047R mutant) cells; test: CellTiter-Glo 2.0 luminescent cell viability assay, 72 hours, T47D cells; conditions: Homo sapiens, T47D, 72 h
Procedure, shortened: (§2)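 Cells seeded at 1000 per well overnight were dosed with a 10-concentration, 1:4 series starting at 10 µM and incubated ~72 h at 37° C. Viability was read by CellTiter-Glo 2.0 luminescence after 30 min at room temperature. IC50 came from four-parameter fits of percent vehicle control.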

[5] = test system: MKN1 (PI3Kα E545K mutant) cells; test: CellTiter-Glo 2.0 luminescent cell viability assay, 72 hours, MKN1 cells; conditions: Homo sapiens
Procedure, shortened: as §2

[6] = test system: SKBR3 (PI3Kα wild type) cells; test: CellTiter-Glo 2.0 luminescent cell viability assay, 72 hours, SKBR3 cells; conditions: Homo sapiens, SK-BR-3, 72 h
Procedure, shortened: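 Viability measured via CTG luminescence following roughly 72 hours of compound exposure at 37° C. Dosing used a 10 um starting concentration diluted 1:4 over 10 points; percent-of-vehicle data fitted with a variable-slope four-parameter model for IC50.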

[7] = T47D (PI3Kα H1047R mutant) cells, inhibition of pAKT (pS473) formation, approximately one hour or 24 hours treatment, read-out: T47D pAKT (H1047R mutant) IC50
[8] = MKN-1, MKN1 (PI3Kα E545K mutant) cells, inhibition of pAKT (pS473) formation, approximately one hour or 24 hours treatment, read-out: MKN1 (E545K) pAKT IC50
[9] = T47D (PI3Kα H1047R mutant) cells, CellTiter-Glo, approximately 72 hours, read-out: T47D (H1047R mutant) Viability IC50
[10] = MKN-1, MKN1 (PI3Kα E545K mutant) cells, CellTiter-Glo, approximately 72 hours, read-out: MKN1 (E545K) Viability IC50
[11] = SKBR3 (PI3Kα wild type) cells, CellTiter-Glo, approximately 72 hours, read-out: SKBR3 (WT) Viability IC50

SMILES	IC50 [1, 7] [nM]	IC50 [2, 8] [nM]	IC50 [3] [nM]	IC50 [4, 9] [nM]	IC50 [5, 10] [nM]	IC50 [6, 11] [nM]	IC50 ([1]; read-out: T47D pAKT (H1047R mutant) IC50 (nM)) [nM]	IC50 ([2]; MKN-1, read-out: MKN1 (E545K) pAKT IC50 (nM)) [nM]	IC50 ([4]; read-out: T47D (H1047R mutant) Viability IC50 (nM)) [nM]	IC50 ([5]; MKN-1, 72 h, read-out: MKN1 (E545K) Viability IC50 (nM)) [nM]	IC50 ([6]; read-out: SKBR3 (WT) Viability IC50 (nM)) [nM]
Cc1cc(C(C)Nc2ccccc2C(F)(F)CO)c2nc(N3CCCCC3)cc(=O)n2c1 (stereo not drawn) [Example 3-20, 9-(1-((2-(1,1-difluoro-2-hydroxyethyl)phenyl)amino)ethyl)-7-methyl-2-(piperidin-1-yl)-4H-pyrido[1,2-a]pyrimidin-4-one]	1120	> 10000	> 10000	> 10000	> 10000	> 10000					
Cc1cc(C(C)Nc2ccccc2O)c2nc(N3CCCCC3)cc(=O)n2c1 (stereo not drawn) [Example 3-16, 9-(1-((2-hydroxyphenyl)amino)ethyl)-7-methyl-2-(piperidin-1-yl)-4H-pyrido[1,2-a]pyrimidin-4-one]	> 10000	> 10000	> 10000	> 10000	> 10000	9300					
Cc1cc(C(C)N(C)C(=O)CCl)c2nc(N3CCCCC3)cc(=O)n2c1 (stereo not drawn) [Example 4-4, 2-chloro-N-methyl-N-(1-(7-methyl-4-oxo-2-(piperidin-1-yl)-4H-pyrido[1,2-a]pyrimidin-9-yl)ethyl)acetamide]	> 10000	> 10000	> 10000	> 10000	4290	3860					
C=CC(=O)N(C)C(C)c1cc(C)cn2c(=O)cc(N3CCCCC3)nc12 (stereo not drawn) [Example 4-2, N-methyl-N-(1-(7-methyl-4-oxo-2-(piperidin-1-yl)-4H-pyrido[1,2-a]pyrimidin-9-yl)ethyl)acrylamide]	> 10000	> 10000	> 10000	> 10000	> 10000	> 10000					
Cc1cc(C(C)Nc2ccccc2C(=O)O)c2nc(C)cc(=O)n2c1 (stereo not drawn) [Example 6-1, 2-((1-(2,7-dimethyl-4-oxo-4H-pyrido[1,2-a]pyrimidin-9-yl)ethyl)amino)benzoic acid]			> 10000				3370	> 10000	> 10000	> 10000	> 10000
CC(Nc1ccccc1C(=O)O)c1cc(C(F)F)cn2c(=O)cc(N3CCCCC3)nc12 (stereo not drawn) [Example 5-7, 2-((1-(7-(difluoromethyl)-4-oxo-2-(piperidin-1-yl)-4H-pyrido[1,2-a]pyrimidin-9-yl)ethyl)amino)benzoic acid]	34.1	> 10000	> 10000	2630	3280	2950					

The next lines start with results.

IC50 [1, 7] [nM]	IC50 [2, 8] [nM]	IC50 [3] [nM]	IC50 [4, 9] [nM]	IC50 [5, 10] [nM]	IC50 [6, 11] [nM]	SMILES	IC50 ([1]; read-out: T47D pAKT (H1047R mutant) IC50 (nM)) [nM]	IC50 ([2]; MKN-1, read-out: MKN1 (E545K) pAKT IC50 (nM)) [nM]	IC50 ([4]; read-out: T47D (H1047R mutant) Viability IC50 (nM)) [nM]	IC50 ([5]; MKN-1, 72 h, read-out: MKN1 (E545K) Viability IC50 (nM)) [nM]	IC50 ([6]; read-out: SKBR3 (WT) Viability IC50 (nM)) [nM]
21.2	> 10000	> 10000	2580	> 10000	> 10000	Cc1cc(C(C)Nc2ccccc2C(=O)O)c2nc(C3CCOCC3)cc(=O)n2c1 (stereo not drawn) [Example 9-1, 2-((1-(7-methyl-4-oxo-2-(tetrahydro-2H-pyran-4-yl)-4H-pyrido[1,2-a]pyrimidin-9-yl)ethyl)amino)benzoic acid]					
30	1390	1820	461	> 10000	> 10000	Cc1cc([C@@H](C)Nc2ccccc2C(=O)O)c2nc(N3CCC(C)(C)CC3)c(C)c(=O)n2c1 (single isomer, unassigned) [Example 5-1]					
> 10000	> 10000	> 10000	> 10000	> 10000	> 10000	Cc1cc(C(C)Nc2ccccc2C(=O)N(C)C)c2nc(N3CCCCC3)cc(=O)n2c1 (stereo not drawn) [Example 3-15, N,N-dimethyl-2-((1-(7-methyl-4-oxo-2-(piperidin-1-yl)-4H-pyrido[1,2-a]pyrimidin-9-yl)ethyl)amino)benzamide]					
1210	> 10000	> 10000	8020	> 10000	> 10000	Cc1cc([C@@H](C)Nc2ccccc2C(=O)O)c2nc(N3CCC(C)(C)CC3)cc(=O)n2c1 (single isomer, unassigned) [Example 5-5]					
3010	> 10000	> 10000	9680	> 10000	> 10000	Cc1cc([C@@H](C)Nc2ccccc2C(=O)O)c2nc(N3Cc4ccccc4C3)c(C)c(=O)n2c1 (single isomer, unassigned) [Example 5-9-2]					
